One may read the ED50 as the dose that gives a 50% effect, or the effect in half of the subjects.

Consider 24 compounds from US4710498A, “Pyridyloxy derivatives” (Ikeda Mohando Co., Ltd., priority 1984, dated 1987).

The subject of assay [1] is Gastric Acid Secretion Induced by Histamine. Briefly: Inhibition effect on gastric acid secretion induced by histamine in pylorus ligated rat (subcutaneous). The format is in vivo, male Wistar rat. The protocol:
(§1) A male Wistar rat having a body weight of about 160 g and which had not fed for 24 hours was anesthetized by an intraperitoneal dose of 1.2 g/kg of urethane. After ligating of pylorus and esophagus, the gaster anterior was incised and fitting with a double polyethylene cannula. The wall of the stomach was rinsed with 5 ml of saline at 30 minutes intervals, and the quantity of gastric acid contained in each rinsing solution was measured by titration.
The basal acid secretion was initially measured three times, and then 0.2 mg/kg of each of the compounds of this invention was administered subcutaneously and 3 mg/kg of histamine was administered subcutaneously after the lapse of an additional 30 minutes.
(§2) The quantity of gastric acid secreted after the operation was measured continuously for 3 hours. Within that measurement interval, three time points at which the increase in acid secretion reached a maximum level were selected, and the average quantity of gastric acid secreted at those time points was taken as the increase in acid secretion, which was compared with the increase in acid secretion of the control group to calculate the percent inhibition for secretion of gastric acid (Table 1). [formula] (The result was shown as the average value of five runs.)

Assay [2] has the same test system. Briefly: Inhibitory effect of intraduodenally administered compounds on gastric acid secretion induced by histamine in rat. In kind it is in vivo, male Wistar rat. The settings on record: for ED50: Rattus norvegicus; for Efficacy Ratio relative to Cimetidine (Cimetidine = 1): rat, in vivo. The protocol: The test was conducted by an improved method based on that reported by Watanabe et al., in "Pharmacometrics", Vol. 3, No. (1), pages 7 to 14 (1969).
as §1, §2

Assay [3] addresses T1, Histamine H2 -Receptor (Cavia porcellus, UniProt P47747).
T1 construct: from tissue; host or cells: isolated right atrium of male Hartley guinea pig
The assay is described as follows: biochemical. Set-up: species or system male Hartley guinea pig. Particulars: for Kb: negative logarithm of molar concentration, isolated guinea pig atrium, read-out: Antagonistic Action against Histamine H2 -Receptor (pA2) Determined by Using Atrium isolated from Guinea Pig (converted). The protocol: A male Hartley guinea pig having a body weight of about 400 g was killed by cervical dislocation, and the atrium thereof was isolated and was suspended in an organ bath containing […] of a modified Ringer solution and subjected to a tension of 1 g. The number of heart beats under such condition was recorded using a polygraph.
Initially, from 1×10^-7 mol to 3×10^-4 mol of histamine was allowed to act accumulatively to depict the curve of the dosage-reaction relationship. Likewise, the curve of the dosage of histamine-reaction relationship was depicted in the presence of 5×10^-7 mol to 1×10^-6 mol of the test sample which was injected 3 minutes before. The negative logarithm (pA2) of the molar concentration of the test sample required for moving the curve obtained by single administration of histamine parallel to the right side by a two-times concentration was calculated.

Setting [4] is: Rattus norvegicus, 0.2 mg/kg SC, histamine 3 mg/kg SC, average of five runs, read-out: Secretion of Gastric Acid in Rat, Inhibition Rate (%).
Where [5] appears, read: intraduodenal, 30 minutes before histamine SC, first series (Table 2-1), read-out: Median effective dose (ED50) inhibiting Gastric Acid Section (95% Reliability Limit).

Where two headings read alike, the source gives them in different places.

T1 sequence (P47747 whole entry): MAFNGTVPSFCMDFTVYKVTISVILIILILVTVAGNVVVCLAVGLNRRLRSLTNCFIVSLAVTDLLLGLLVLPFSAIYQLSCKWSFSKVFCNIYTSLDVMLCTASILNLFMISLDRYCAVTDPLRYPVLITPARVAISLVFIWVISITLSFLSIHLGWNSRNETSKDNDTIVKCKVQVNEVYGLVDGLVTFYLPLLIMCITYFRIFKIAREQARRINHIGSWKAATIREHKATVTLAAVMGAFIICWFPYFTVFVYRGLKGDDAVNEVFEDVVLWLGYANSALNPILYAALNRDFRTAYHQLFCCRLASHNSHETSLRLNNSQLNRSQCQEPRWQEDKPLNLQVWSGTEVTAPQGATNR

“5-dimethylaminomethylbenzyl-2-[4-<6-(1-pipelidinomethyl)pyridyl-2-oxy>-cis-2-butenylamino]-1H-pyrimidin-4-one [Ex. 45]”: in assay [1] (0.2 mg/kg SC, histamine 3 mg/kg SC, average of five runs), the “Secretion of Gastric Acid in Rat, Inhibition Rate (%)” value is listed as 36%.

As to `CN/C(=N/CCSCc1nc[nH]c1C)NC#N` [Cimetidine, reference compound], the ED50 in assay [2] (read-out: Median effective dose (ED50) inhibiting Gastric Acid Section (95% Reliability Limit), intraduodenal, 30 minutes before histamine SC, first series (Table 2-1)) was 7 mg/kg; in assay [2] (read-out: Median effective dose (ED50) inhibiting Gastric Acid Section (95% Reliability Limit), intraduodenal, 30 minutes before histamine SC, second series (Table 2-2)), 8.2 mg/kg. For the same compound, in assay [1] (Rattus norvegicus, sc, read-out: Secretion of Gastric Acid in Rat, Inhibition Rate (%)), the inhibition in vivo at 2 mg/kg was found to be 72%.

Regarding `CN(C)Cc1ccnc(OC/C=C\CNc2c(N)c(=O)c2=O)c1` [Ex. 3, 1-amino-2-<4-(4-dimethylaminomethylpyridyl-2-oxy)-cis-2-butenylamino>-1-cyclobuten-3,4-dione], the Kb in assay [3] was 468 nM. The inhibition in vivo at 0.2 mg/kg in assay [1] (setting [4]) was 52%.

As to `CNc1c(NC/C=C\COc2cc(CN(C)C)ccn2)c(=O)c1=O` [Ex. 4, 1-methylamino-2-<4-(4-dimethylaminomethylpyridyl-2-oxy)-cis-2-butenylamino>-1-cyclobuten-3,4-dione], the 50% effective dose (ED50) in assay [2] (setting [5]) turned out to be 0.11 mg/kg. The “Efficacy Ratio relative to Cimetidine (Cimetidine = 1)” value (“Efficacy Ratio relative to Cimetidine” below) in assay [2] is on record as 63.6.

As for `Nc1n[s+]([O-])nc1NC/C=C\COc1cc(CN2CCCCC2)ccn1` (stereo not drawn) [Ex. 7, 3-amino-4-[4-<4-(1-piperidinomethyl)pyridyl-2-oxy>-cis-2-butenylamino]-1,2,5-thiadiazole-1-oxide], in assay [2] (setting [5]), the ED50 was 0.44 mg/kg. For the same compound, the “Efficacy Ratio relative to Cimetidine” value in assay [2] was determined as 15.9. The Kb in assay [3] was 661 nM. The inhibition in vivo at 0.2 mg/kg in assay [1] (setting [4]) was 90%.

Consider `CNc1n[s+]([O-])nc1NC/C=C\COc1cc(CN2CCCCC2)ccn1` (stereo not drawn) [Ex. 8, 3-methylamino-4-[4-<4-(1-piperidinomethyl)pyridyl-2-oxy>-cis-2-butenylamino]-1,2,5-thiadiazole-1-oxide], for which the Kb in assay [3] is 490 nM. In addition, the inhibition in vivo at 0.2 mg/kg in assay [1] (setting [4]) stood at 85%.

`CNc1n[s+]([O-])nc1NC/C=C/COc1cc(CN2CCCCC2)ccn1` (stereo not drawn) [Ex. 10, 3-methylamino-4-[4-<4-(1-piperidinomethyl)pyridyl-2-oxy>-trans-2-butenylamino]-1,2,5-thiadiazole-1-oxide]: the Kb in assay [3] was 182 nM. Also, the inhibition in vivo at 0.2 mg/kg in assay [1] (setting [4]) came out at 52%.

Turning to `NC1=NS(=O)(=O)N=C1NC/C=C\COc1cc(CN2CCCCC2)ccn1` [Ex. 13, 3-amino-4-[4-<4-(1-piperidinomethyl)pyridyl-2-oxy>-cis-2-butenylamino]-1,2,5-thiadiazole-1,1-dioxide], in assay [2] (setting [5]), the 50% effective dose (ED50) is 0.5 mg/kg. Further, in assay [2], the “Efficacy Ratio relative to Cimetidine” value is listed as 14.0. In assay [3], the Kb is 708 nM. Also, the inhibition in vivo at 0.2 mg/kg in assay [1] (setting [4]) is 84%.

Take `Nc1nsnc1NC/C=C\COc1cc(CN2CCCCC2)ccn1` [Ex. 15, 3-amino-4-[4-<4-(1-piperidinomethyl)pyridyl-2-oxy>-cis-2-butenylamino]-1,2,5-thiadiazole]: the ED50 in assay [2] (setting [5]) amounted to 0.38 mg/kg. Moreover, in assay [2], the “Efficacy Ratio relative to Cimetidine” value worked out at 18.4. In assay [3] (isolated right atria of guinea pigs), the “antagonistic actions against Histamine H2 -receptor (in words)” value was “strong”. In addition, the Kb in assay [3] is 35.5 nM. Moreover, in assay [1] (setting [4]), the inhibition in vivo at 0.2 mg/kg was determined as 61%.

With `Nc1nnc(NC/C=C\COc2cc(CN3CCCCC3)ccn2)s1` [Ex. 17, 2-amino-5-[4-<4-(1-piperidinomethyl)pyridyl-2-oxy>-cis-2-butenylamino]-1,3,4-thiadiazole], the ED50 in assay [2] (setting [5]) stood at 0.14 mg/kg. Also, the “Efficacy Ratio relative to Cimetidine” value in assay [2] was 50.0. In assay [3], the Kb is 204 nM. The inhibition in vivo at 0.2 mg/kg in assay [1] (setting [4]) came out at 69%.

In the case of `CN(C)Cc1c[nH]c(NC/C=C\COc2cc(CN3CCCCC3)ccn2)nc1=O` [Ex. 21, 5-dimethylaminomethyl-2-[4-<4-(1-piperidinomethyl)pyridyl-2-oxy>-cis-2-butenylamino]-1H-pyrimidin-4-one], the Kb in assay [3] was 316 nM. Also, the inhibition in vivo at 0.2 mg/kg in assay [1] (setting [4]) stood at 65%.

Regarding `CN(C)Cc1cccc(Cc2c[nH]c(NC/C=C\COc3cc(CN4CCCCC4)ccn3)nc2=O)c1` [Ex. 23, 5-(3-dimethylaminomethylbenzyl)-2-[4-<4-(1-piperidinomethyl)pyridyl-2-oxy>-cis-2-butenylamino]-1H-pyrimidin-4-one], the Kb in assay [3] was 1550 nM. For the same compound, the inhibition in vivo at 0.2 mg/kg in assay [1] (setting [4]) was 36%.

As for `O=c1nc(NC/C=C\COc2cc(CN3CCCCC3)ccn2)[nH]nc1Cc1cccnc1` [Ex. 25, 3-[4-<4-(1-piperidinomethyl)pyridyl-2-oxy>-cis-2-butenylamino]-6-(3-pyridylmethyl)-1,2,4-triazin-5-one], in assay [2] (setting [5]), the ED50 amounted to 0.14 mg/kg. The “Efficacy Ratio relative to Cimetidine” value in assay [2] is given as 50.0. Also, the Kb in assay [3] is 170 nM. Besides, the inhibition in vivo at 0.2 mg/kg in assay [1] (setting [4]) stood at 55%.

As for `Nc1cc(NC/C=C\COc2cc(CN3CCCCC3)ccn2)[nH]c(=O)n1` [Ex. 26, 4-amino-6-[4-<4-(1-piperidinomethyl)pyridyl-2-oxy>-cis-2-butenylamino]-1H-pyrimidin-2-one], the Kb in assay [3] was 263 nM. Moreover, in assay [1] (setting [4]), the inhibition in vivo at 0.2 mg/kg is 83%.

`CNc1c(NC/C=C\COc2cccc(CN3CCCCC3)n2)c(=O)c1=O` [Ex. 33, 1-methylamino-2-[4-<6-(1-piperidinomethyl)pyridyl-2-oxy>-cis-2-butenylamino]-1-cyclobuten-3,4-dione]: the Kb in assay [3] is 661 nM. The inhibition in vivo at 0.2 mg/kg in assay [1] (setting [4]) is 34%.

Consider `Nc1n[s+]([O-])nc1NC/C=C\COc1cccc(CN2CCCCC2)n1` (stereo not drawn) [Ex. 34, 3-amino-4-[4-<6-(1-piperidinomethyl)pyridyl-2-oxy>-cis-2-butenylamino]-1,2,5-thiadiazole-1-oxide], for which, in assay [3], the Kb was 933 nM. In assay [1] (setting [4]), the inhibition in vivo at 0.2 mg/kg was determined as 81%.

`CNc1n[s+]([O-])nc1NC/C=C\COc1cccc(CN2CCCCC2)n1` (stereo not drawn) [Ex. 35, 3-methylamino-4-[4-<6-(1-piperidinomethyl)pyridyl-2-oxy>-cis-2-butenylamino]-1,2,5-thiadiazole-1-oxide]: the Kb in assay [3] is 1100 nM. Also, the inhibition in vivo at 0.2 mg/kg in assay [1] (setting [4]) was determined as 74%.

In the case of `Nc1nnc(NC/C=C\COc2cccc(CN3CCCCC3)n2)s1` [Ex. 39, 2-amino-5-[4-<6-(1-piperidinomethyl)pyridyl-2-oxy>-cis-2-butenylamino]-1,3,4-thiadiazole], the Kb in assay [3] was 1550 nM. Moreover, in assay [1] (setting [4]), the inhibition in vivo at 0.2 mg/kg turned out to be 36%.

With `Cn1nc(N)nc1NC/C=C\COc1cccc(CN2CCCCC2)n1` [Ex. 41, 3-amino-1-methyl-5-[4-<6-(1-piperidinomethyl)pyridyl-2-oxy>-cis-2-butenylamino]-1H-1,2,4-triazole], in assay [3], the Kb was 1910 nM. Further, the inhibition in vivo at 0.2 mg/kg in assay [1] (setting [4]) worked out at 32%.

For `CN(C)Cc1c[nH]c(NC/C=C\COc2cccc(CN3CCCCC3)n2)nc1=O` [Ex. 43, 5-dimethylaminomethyl-2-[4-<6-(1-piperidinomethyl)pyridyl-2-oxy>-cis-2-butenylamino]-1H-pyrimidin-4-one], the Kb in assay [3] was 617 nM. For the same compound, in assay [1] (setting [4]), the inhibition in vivo at 0.2 mg/kg stood at 44%.

On to `Nc1cc(NC/C=C\COc2cccc(CN3CCCCC3)n2)[nH]c(=O)n1` [Ex. 47, 4-amino-6-[4-<6-(1-piperidinomethyl)pyridyl-2-oxy>-cis-2-butenylamino]-1H-pyrimidin-2-one], for which the inhibition in vivo at 0.2 mg/kg in assay [1] (setting [4]) came to 40%.

As to `Nc1n[nH]c(=O)nc1NC/C=C\COc1cccc(CN2CCCCC2)n1` [Ex. 49, 6-amino-5-[4-<6-(1-piperidinomethyl)pyridyl-2-oxy<-cis-2-butenylamino]-1,2,4-triazin-3-one], in assay [3], the Kb was 1700 nM. The inhibition in vivo at 0.2 mg/kg in assay [1] (setting [4]) turned out to be 45%.

Turning to `Nc1n[nH]c(=O)nc1NC/C=C/COc1cc(CN2CCCCC2)ccn1` [compound 30, 6-amino-5-[4-<4-(1-piperidinomethyl)pyridyl-2-oxy>trans-2-butenylamino]-1,2,4-triazin-3-one], the ED50 in assay [2] (setting [5]) was found to be 0.26 mg/kg. The “Efficacy Ratio relative to Cimetidine” value in assay [2] worked out at 26.9.

As to `CN(C)Cc1ccnc(OC/C=C\CNc2nc(=O)[nH]nc2N)c1` [compound 31, 6-amino-5-<4-(4-dimethylaminomethylpyridyl-2-oxy)-cis-2-butenylamino>-1,2,4-triazin-3-one], the ED50 in assay [2] (setting [5]) was determined as 0.28 mg/kg. For the same compound, the “Efficacy Ratio relative to Cimetidine” value in assay [2] worked out at 25.0.
